Results from publication PMC6979384, “Characterization of the plant homeodomain (PHD) reader family for their histone tail interactions” (Epigenetics & Chromatin, 2020).

Experiments:
Test in all cases: Histone peptide microarray
Format in all cases: binding, human
AIRE (PP) = conditions: GST-tagged AIRE (PP); sheet Array Heatmap; each array performed twice, total n = 4
Summary of the method: (§1)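 Binding read as mean relative signal from 4 replicates; microarray held 293 synthetic histone peptides with single or combinatorial PTMs. Each GST-tagged PHD reader was applied at 0.5 μM using the optimized Petell protocol.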

BAZ2B = conditions: GST-tagged BAZ2B; sheet Array Heatmap; each array performed twice, total n = 4
Summary of the method: as §1

BPTF (PB) = conditions: GST-tagged BPTF (PB = PHD + Bromodomain); sheet Array Heatmap; each array performed twice, total n = 4
Summary of the method: as §1

CHD4 (PPCC) = conditions: GST-tagged CHD4 (PPCC = Dual PHD + Dual Chromodomain); sheet Array Heatmap; each array performed twice, total n = 4
Summary of the method: as §1

CHD5 (PCC) = conditions: GST-tagged CHD5 (PCC = PHD + Dual Chromodomain); sheet Array Heatmap; each array performed twice, total n = 4
Summary of the method: as §1

CHD5 (PPCC) = conditions: GST-tagged CHD5 (PPCC = Dual PHD + Dual Chromodomain); sheet Array Heatmap; each array performed twice, total n = 4
Summary of the method: as §1

DIDO1 = conditions: GST-tagged DIDO1; sheet Array Heatmap; each array performed twice, total n = 4
Summary of the method: as §1

DPF2 (PPC2W2) = conditions: GST-tagged DPF2 (PPC2W2 = Dual PHD + C2W2-type Zn-finger); sheet Array Heatmap; each array performed twice, total n = 4
Summary of the method: as §1

ING1 = conditions: GST-tagged ING1; sheet Array Heatmap; each array performed twice, total n = 4
Summary of the method: as §1

ING2 = conditions: GST-tagged ING2; sheet Array Heatmap; each array performed twice, total n = 4
Summary of the method: as §1

ING3 = conditions: GST-tagged ING3; sheet Array Heatmap; each array performed twice, total n = 4
Summary of the method: as §1

ING4 = conditions: GST-tagged ING4; sheet Array Heatmap; each array performed twice, total n = 4
Summary of the method: as §1

ING5 = conditions: GST-tagged ING5; sheet Array Heatmap; each array performed twice, total n = 4
Summary of the method: as §1

KDM4C (TTP) = conditions: GST-tagged KDM4C (TTP = Tandem Tudor domain + PHD); sheet Array Heatmap; each array performed twice, total n = 4
Summary of the method: as §1

KDM5A (1) = conditions: GST-tagged KDM5A (1); sheet Array Heatmap; each array performed twice, total n = 4
Summary of the method: as §1

KDM5A (3) = conditions: GST-tagged KDM5A (3); sheet Array Heatmap; each array performed twice, total n = 4
Summary of the method: as §1

KDM5B (1) = conditions: GST-tagged KDM5B (1); sheet Array Heatmap; each array performed twice, total n = 4
Summary of the method: as §1

KDM5B (3) = conditions: GST-tagged KDM5B (3); sheet Array Heatmap; each array performed twice, total n = 4
Summary of the method: as §1

KDM7A = conditions: GST-tagged KDM7A; sheet Array Heatmap; each array performed twice, total n = 4
Summary of the method: as §1

MLL5 = conditions: GST-tagged MLL5; sheet Array Heatmap; each array performed twice, total n = 4
Summary of the method: as §1

MORC3 (CW) = conditions: GST-tagged MORC3 (CW = CW-type Zn-finger); sheet Array Heatmap; each array performed twice, total n = 4
Summary of the method: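 GST-tagged PHD readers, 0.5 μM, probed on a microarray of 293 synthetic histone peptides carrying single or combinatorial PTMs (optimized Petell protocol). Signals are averaged over 4 replicates and expressed as relative binding.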

PHF13 = conditions: GST-tagged PHF13; sheet Array Heatmap; each array performed twice, total n = 4
Summary of the method: as §1

PHF21A = conditions: GST-tagged PHF21A; sheet Array Heatmap; each array performed twice, total n = 4
Summary of the method: as §1

PHF23 = conditions: GST-tagged PHF23; sheet Array Heatmap; each array performed twice, total n = 4
Summary of the method: as §1

PHF2 = conditions: GST-tagged PHF2; sheet Array Heatmap; each array performed twice, total n = 4
Summary of the method: as §1

PHF8 = conditions: GST-tagged PHF8; sheet Array Heatmap; each array performed twice, total n = 4
Summary of the method: as §1

PHRF1 (RP) = conditions: GST-tagged PHRF1 (RP); sheet Array Heatmap; each array performed twice, total n = 4
Summary of the method: as §1

RAG2 = conditions: GST-tagged RAG2; sheet Array Heatmap; each array performed twice, total n = 4
Summary of the method: as §1

SP140L = conditions: GST-tagged SP140L; sheet Array Heatmap; each array performed twice, total n = 4
Summary of the method: as §1

TAF3 = conditions: GST-tagged TAF3; sheet Array Heatmap; each array performed twice, total n = 4
Summary of the method: as §1

TRIM66 (PB) = conditions: GST-tagged TRIM66 (PB = PHD + Bromodomain); sheet Array Heatmap; each array performed twice, total n = 4
Summary of the method: as §1

With H3T3p + K4me3: H3 1-20 the “Array Heatmap signal (histone peptide microarray)” value (shortened to “Array Heatmap signal”) (AIRE (PP)) was 0.3968, the “Array Heatmap signal” value (BAZ2B) was 0.4608 and the “Array Heatmap signal” value (BPTF (PB)) was 0.35. The “Array Heatmap signal” value (CHD4 (PPCC)) was 0.624, the “Array Heatmap signal” value (CHD5 (PCC)) was 0.7821 and the “Array Heatmap signal” value (CHD5 (PPCC)) was 0.5481. The “Array Heatmap signal” value (DIDO1) was 0.6916, the “Array Heatmap signal” value (DPF2 (PPC2W2)) was 0.6866 and the “Array Heatmap signal” value (ING1) was 0.5588. The “Array Heatmap signal” value (ING2) was 0.6632, the “Array Heatmap signal” value (ING3) was 0.4764 and the “Array Heatmap signal” value (ING4) was 0.4716. For the same substance, the “Array Heatmap signal” value (ING5) was 0.3533, the “Array Heatmap signal” value (KDM4C (TTP)) was 0.4706 and the “Array Heatmap signal” value (KDM5A (1)) was 0.462. The “Array Heatmap signal” value (KDM5A (3)) was 0.5826, the “Array Heatmap signal” value (KDM5B (1)) was 0.6609 and the “Array Heatmap signal” value (KDM5B (3)) was 0.5163. The “Array Heatmap signal” value (KDM7A) was 0.3295, the “Array Heatmap signal” value (MLL5) was 0.5412 and the “Array Heatmap signal” value (MORC3 (CW)) was 0.5559. For the same substance, the “Array Heatmap signal” value (PHF13) was 0.62, the “Array Heatmap signal” value (PHF21A) was 0.4603 and the “Array Heatmap signal” value (PHF23) was 0.5295. For the same substance, the “Array Heatmap signal” value (PHF2) was 0.5905, the “Array Heatmap signal” value (PHF8) was 0.3669 and the “Array Heatmap signal” value (PHRF1 (RP)) was 0.4433. For the same substance, the “Array Heatmap signal” value (RAG2) was 0.2672, the “Array Heatmap signal” value (SP140L) was 0.3246 and the “Array Heatmap signal” value (TAF3) was 0.2953. For the same substance, the “Array Heatmap signal” value (TRIM66 (PB)) was 0.5989.
